Source: paper PMC10740499, “Benzodioxane–Benzamides as FtsZ Inhibitors: Effects of Linker’s Functionalization on Gram-Positive Antimicrobial Activity” (Antibiotics, 2023)
Converted amounts (≈) assume the structure as drawn. “And” between values parts separate entries of the source, which are not always exact repeats. Identical values can stand only once. Like-named read-outs stand apart in the source and are kept apart here.

Legend:
[1] = system: methicillin-sensitive S. aureus (MSSA, ATCC29213); assay: MIC, broth dilution, MSSA ATCC 29213; assay type: cell-based, Staphylococcus aureus
From the text: (§1) As described in our previous work, we evaluated all the compounds mentioned above on different S. aureus strains. We tested on both methicillin-sensitive S. aureus (MSSA, ATCC29213) and two clinical isolates of S. aureus showing multi-drug resistance (MDRSA). […] We analyzed the MICs and, if the antibacterial activity was promising, we also determined the percentage of cytotoxicity using the MTT assay on human MRC-5 cells and reported it as TD90. The results of antibacterial properties of all of the synthesized derivatives are shown in Table 1, and they are compared with their reference compounds FZ14, FZ88, and FZ100.
Gram-positive methicillin-sensitive Staphylococcus aureus (MSSA, ATCC 29213) was grown in Luria–Bertani broth (LB), as already described in our papers.
(§2) The detailed protocol is identical to what was previously reported. Briefly, the antimicrobial testing of compounds followed the Clinical and Laboratory Standards Institute and European Committee for Antimicrobial Susceptibility Testing guidelines. A bacterial suspension equivalent to 0.5 McFarland turbidity standard was diluted in cation-adjusted Mueller Hinton broth to prepare a fresh bacterial culture of 10^5 CFU/mL. Compounds dissolved in DMSO were combined with the bacteria and incubated for 20 h at 35 °C. MIC values were determined visually as the lowest compound dilution with no turbidity. MICs were determined against methicillin-sensitive and methicillin-resistant S. aureus strains (11.7 and 12.1). Every assay was performed in triplicate, and for each series of experiments, both positive (tetracycline) and negative (no compounds) controls were included.

[2] = system: B. subtilis strain WM5126; assay: MIC from broth microdilution; assay type: cell-based, Bacillus subtilis
From the text: (§3) We further evaluated the most promising compounds on B. subtilis, a model Gram-positive species used previously in evaluating other benzamides, including by our research group. The B. subtilis strain WM5126 expresses a xylose-inducible GFP-tagged ZapA protein. […] We first tested the effects of the compounds on colony viability on solid medium (Figure 4). […] MIC values from microdilution experiments, shown in the right column in Figure 4, largely mirrored the spot viability data.
(§4) The B. subtilis strain used was WM5126 (JH642 amyE::Pxyl-gfp-zapA). For spot viability assays on plates, compounds were diluted from DMSO stocks into molten LB agar and mixed well before solidifying. To assess viability, cells were grown until the early log phase, and then 10-fold serial dilutions of the culture in LB were spotted onto LB agar plates containing the indicated final concentration of the compounds. The plates were incubated overnight at 30 °C and photographed. Microdilution assays to obtain MICs were performed essentially as described for E. coli.

[3] = system: B. subtilis strain WM5126; assay: Spot viability assay on solid medium; assay type: cell-based, Bacillus subtilis; conditions: for concentration able to kill on solid medium: spot dilutions on LB agar; for growth on solid medium at 6 µg/mL: 6 µg/mL in LB agar; for colony viability on solid medium, in words: more potent compounds, Figure 4A
From the text: as §3, §4

MDRSA 12.1 = assay: MIC, broth dilution, MDRSA 12.1; assay type: cell-based, Staphylococcus aureus; conditions: MDRSA 12.1 clinical isolate
From the text: as §1, §2

MDRSA 11.7 = assay: MIC, broth dilution, MDRSA 11.7; assay type: cell-based, Staphylococcus aureus; conditions: MDRSA 11.7 clinical isolate
From the text: as §1, §2

E. coli FtsZ = system: E. coli FtsZ; set-up: method as in PMID 37634788; conditions: in words; cited from earlier work
human MRC-5 cells [4] = assay: MTT cytotoxicity assay; assay type: cell-based; conditions: MRC-5, MTT assay
From the text: as §1
Normal human lung fibroblasts (MRC-5) were grown in Dulbecco’s Modified Eagle’s medium (DMEM) supplemented with 10% heat-inactivated fetal calf serum (FCS), 100 U/mL penicillin, and […] streptomycin.
Compounds showing promising antibacterial activity were serially diluted in DMEM and tested for cytotoxicity on MRC-5 cells using the MTT assay (Sigma, St Louis, MO, USA), following the same protocol we previously reported.

[5] = system: FtsZ rings in live B. subtilis WM 5126 cells expressing GFP-ZapA; assay: GFP-ZapA fluorescence microscopy of FtsZ assembly; assay type: cell-based, Bacillus subtilis; conditions: 0.3 µg/mL (0.8 µM), 90 min
Procedure: To test if the differential effects of FZ116 and FZ117 enantiomers could be detected as FtsZ assembly changes in B. subtilis cells, we visualized GFP-ZapA patterns after growth in inhibitory concentrations of FZ116 and FZ117 (0.3 µg/mL or 0.8 µM). Cells grown with no added compound grew as typical single bacilli and short chains, with well- defined Z rings clearly visible (Figure 5, left panel, single yellow arrows). […] This conversion of FtsZ rings into a speckle pattern was observed previously, both with FZ100 [14] and with the original benzamide derivatives.
For fluorescence microscopy, overnight cultures of WM5126 were grown at 33 °C (after 1:200 dilution overnight and addition of 0.1% xylose to induce expression of GFP-ZapA) for ~2 h until reaching an OD600 of ~0.2 and then treated with no drug or with compounds FZ116 or FZ117 diluted in water to a final concentration of 0.3 µg/mL (0.8 µM) from stock solutions of 30 mg/mL in DMSO. After the addition of the compounds, the cultures were grown for 90 min while shaking at 33 °C prior to spotting on a thin layer of 1% agarose in phosphate-buffered saline. Cells were imaged with an Olympus BX100 fitted with a 100 × Plan Apochromat objective (N.A. 1.4) and a GFP filter set (Chroma). Images were acquired with CellSens Dimension version 2 software (Evident Corporation, Tokyo, Japan).

[6] = system: methicillin-resistant S. aureus (MRSA); conditions: cited from earlier work
B. subtilis = system: B. subtilis; set-up: method as in PMID 33920895; conditions: cited from earlier work
human MRC-5 cells [7] = system: human MRC-5 cells; set-up: method as in PMID 33920895; conditions: in words; cited from earlier work
[8] = system: methicillin-sensitive Staphylococcus aureus (MSSA); conditions: cited from earlier work
[9] = Staphylococcus aureus, 20 h, MSSA ATCC 29213, 20 h at 35 °C, read-out: MIC
[10] = Staphylococcus aureus, read-out: MIC vs S. aureus
[11] = Bacillus subtilis, value in brackets
[12] = MSSA ATCC 29213, 20 h at 35 °C, read-out: MIC
[13] = as repeated in Table S1 beside the docking ranges, read-out: MIC vs S. aureus

Structure (SMILES) | MIC [1, 9] [µM] | MIC [1, 10] [µM] | MIC ([2]; Bacillus subtilis) [µg/mL] | MIC [2, 11] [µM] | MIC (MDRSA 12.1; Staphylococcus aureus) [µM] | MIC (MDRSA 11.7; Staphylococcus aureus) [µM] | TD90 (human MRC-5 cells [4]) [µM] | other results
C[C@H](Oc1ccc(F)c(C(N)=O)c1F)[C@H]1COc2ccccc2O1 (relative stereo) [FZ104, 3-[1-(1,4-benzodioxan-2yl)ethyl-1-oxy]-2,6-difluorobenzamide] | 23.9 (≈ 8.01 µg/mL) | 23.9 (≈ 8.01 µg/mL) | 3.75 | 11 | 23.9 (≈ 8.01 µg/mL) | 23.9 (≈ 8.01 µg/mL) |  | concentration able to kill on solid medium ([3]; overnight 30 °C): 6 µg/mL; concentration able to kill on solid medium ([3]; value in brackets): ~ 20 µM
NC(=O)c1c(F)ccc(OC[C@H](O)[C@H]2COc3ccccc3O2)c1F (relative stereo) [FZ112] | 364 (≈ 128 µg/mL) | 364 (≈ 128 µg/mL) | 7.5 | 21 | 364 (≈ 128 µg/mL) | 364 (≈ 128 µg/mL) |  | growth on solid medium at 6 µg/mL [3]: still permitted growth
NC(=O)c1c(F)ccc(OC[C@@H](O)[C@H]2COc3ccccc3O2)c1F (relative stereo) [FZ113] | 364 (≈ 128 µg/mL) | 364 (≈ 128 µg/mL) | 15 | 42 | 364 (≈ 128 µg/mL) | 364 (≈ 128 µg/mL) |  | growth on solid medium at 6 µg/mL [3]: still permitted growth
NC(=O)c1c(F)ccc(OC[C@H](O)[C@H]2COc3cc4c(cc3O2)CCCC4)c1F (relative stereo) [FZ116] | 4.9 (≈ 1.99 µg/mL) | 4.9 (≈ 1.99 µg/mL) | < 0.24 | < 0.6 | 4.9 (≈ 1.99 µg/mL) | 4.9 (≈ 1.99 µg/mL) | 468.7 | colony viability on solid medium, in words [3]: killed B. subtilis at the lowest doses; in vitro inhibition of E. coli FtsZ (E. coli FtsZ): very strong; FtsZ ring / GFP-ZapA pattern [5]: largely disrupted
NC(=O)c1c(F)ccc(OC[C@@H](O)[C@H]2COc3cc4c(cc3O2)CCCC4)c1F (relative stereo) [FZ117] | 19.7 (≈ 7.99 µg/mL) | 19.7 (≈ 7.99 µg/mL) | 0.94 | 2.7 | 19.7 (≈ 7.99 µg/mL) | 19.7 (≈ 7.99 µg/mL) | 468.7 | colony viability on solid medium, in words [3]: less effective; FtsZ ring / GFP-ZapA pattern [5]: mixture of FtsZ speckles and Z rings
NC(=O)c1c(F)ccc(OCC2COc3ccccc3O2)c1F (stereo not shown) [FZ14, reference compound] | 15.6 (≈ 5.01 µg/mL) |  |  |  | 15.6 (≈ 5.01 µg/mL) | 15.6 (≈ 5.01 µg/mL) | 49.8 | 
NC(=O)c1c(F)ccc(OCCC2COc3ccccc3O2)c1F (stereo not shown) [FZ88, reference compound] | 14.9 (≈ 5 µg/mL) |  |  |  | 14.9 (≈ 5 µg/mL) | 14.9 (≈ 5 µg/mL) | 226 | 
NC(=O)c1c(F)ccc(OCCC2COc3cc4ccccc4cc3O2)c1F (stereo not shown) [FZ95] |  |  |  |  |  |  |  | MIC [6]: 0.25 μg/mL and 0.6 μM; MIC (B. subtilis): under 0.1 μg/mL; cytotoxicity towards human MRC-5 cells (human MRC-5 cells [7]): low to no cytotoxicity; MIC [8]: 0.25 μg/mL and 0.6 μM
CC(COc1ccc(F)c(C(N)=O)c1F)C1COc2ccccc2O1 (stereo not shown) [FZ97, 3-(2-(1,4-benzodioxan-2-yl)-1-propyloxy)-2,6-difluorobenzamide] |  |  |  |  |  |  |  | MIC [1, 12]: 366.4 µM (≈ 128 µg/mL); MIC [1, 13]: 366.4 µM (≈ 128 µg/mL); MIC (MDRSA 12.1): 366.4 µM (≈ 128 µg/mL); MIC (MDRSA 11.7): 366.4 µM (≈ 128 µg/mL)
CC(COc1ccc(F)c(C(N)=O)c1F)C1COc2ccccc2O1 (stereo not shown) [FZ98, 3-(2-(1,4-benzodioxan-2-yl)-1-propyloxy)-2,6-difluorobenzamide] |  |  | 15 | 42 |  |  |  | MIC [1, 12]: 91.6 µM (≈ 32 µg/mL); MIC [1, 13]: 91.6 µM (≈ 32 µg/mL); growth on solid medium at 6 µg/mL [3]: still permitted growth; MIC (MDRSA 12.1): 91.6 µM (≈ 32 µg/mL); MIC (MDRSA 11.7): 91.6 µM (≈ 32 µg/mL)
NC(=O)c1c(F)ccc(OCCC2COc3cc4c(cc3O2)CCCC4)c1F (stereo not shown) [FZ100] | 0.25 (≈ 0.0973 µg/mL) |  |  |  | 0.25 (≈ 0.0973 µg/mL) | 0.25 (≈ 0.0973 µg/mL) | 2054 | MIC [6]: 0.1 μg/mL and 0.25 μM; MIC (B. subtilis): under 0.1 μg/mL; cytotoxicity towards human MRC-5 cells (human MRC-5 cells [7]): low to no cytotoxicity; MIC [8]: 0.1 μg/mL and 0.25 μM
CC(Oc1ccc(F)c(C(N)=O)c1F)C1COc2ccccc2O1 (stereo not shown) [FZ105, 3-[1-(1,4-benzodioxan-2yl)ethyl-1-oxy]-2,6-difluorobenzamide] | 191 (≈ 64 µg/mL) | 191 (≈ 64 µg/mL) |  |  | 191 (≈ 64 µg/mL) | 191 (≈ 64 µg/mL) |  | 
CC(COc1ccc(F)c(C(N)=O)c1F)C1COc2cc3c(cc2O1)CCCC3 (stereo not drawn) [FZ118, Erythro 3-(2-(5,6,7,8-Tetrahydro-1,4-naphthodioxan-2-yl)prop-1-yloxy)-2,6-difluorobenzamide] | 9.9 (≈ 3.99 µg/mL) | 9.9 (≈ 3.99 µg/mL) | < 0.24 | < 0.6 | 9.9 (≈ 3.99 µg/mL) | 9.9 (≈ 3.99 µg/mL) | 471.0 | colony viability on solid medium, in words [3]: less effective
CC(COc1ccc(F)c(C(N)=O)c1F)C1COc2cc3c(cc2O1)CCCC3 (stereo not drawn) [FZ119, Threo 3-(2-(5,6,7,8-Tetrahydro-1,4-naphthodioxan-2-yl)prop-1-yloxy)-2,6-difluorobenzamide] |  |  |  |  |  |  | 247.9 | MIC [1, 12]: 9.9 µM (≈ 3.99 µg/mL); MIC [1, 13]: 9.9 µM (≈ 3.99 µg/mL); MIC (microdilution) [2]: < 0.24 µg/mL; MIC ([2]; value in brackets): < 0.6 µM; colony viability on solid medium, in words [3]: killed B. subtilis at the lowest doses; MIC (MDRSA 12.1): 9.9 µM (≈ 3.99 µg/mL); MIC (MDRSA 11.7): 9.9 µM (≈ 3.99 µg/mL)
NC(=O)c1c(F)ccc(OCc2nc3cc(Cl)cnc3s2)c1F [PC190723] |  |  |  |  |  |  |  | MIC [6]: 1 µg/mL (≈ 2.81 µM); MIC [8]: 1 µg/mL (≈ 2.81 µM)
